The nature of series [1]: Activation of Myosin S1 ATPase activity in bovine Cardio-myofibril.
Series [2] can be described thus: Plasma protein binding in cynomolgus monkey.
A short description of series [3]: Elimination half life in cynomologus monkey. Particulars: cynomolgus monkey, in vivo.
Series [4] deals with T1, Type-2 angiotensin II receptor (Homo sapiens, UniProt P50052).
T1 sequence (P50052 whole entry): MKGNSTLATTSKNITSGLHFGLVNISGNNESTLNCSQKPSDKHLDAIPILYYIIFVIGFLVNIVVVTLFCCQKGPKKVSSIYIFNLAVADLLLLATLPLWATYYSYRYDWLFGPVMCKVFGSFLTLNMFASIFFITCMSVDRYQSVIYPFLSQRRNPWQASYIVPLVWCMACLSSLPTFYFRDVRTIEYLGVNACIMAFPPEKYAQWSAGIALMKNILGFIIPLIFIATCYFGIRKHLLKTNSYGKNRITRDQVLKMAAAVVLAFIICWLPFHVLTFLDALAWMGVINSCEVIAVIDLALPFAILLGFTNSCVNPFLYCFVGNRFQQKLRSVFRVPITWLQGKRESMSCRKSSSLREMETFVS
Description: Inhibition of Angiotensin-2 receptor (unknown origin).

Series [5] in a line: Inhibition of ApoB lipoprotein secretion in human HepG2 cells. The series is classed as functional. Particulars: read-out: ED50 (the source's name).
The species entered for the next series is Rattus norvegicus. Briefly: Antithrombotic activity in fibrin-rich platelet-poor rat thrombin.
The next series concerns the target P2Y purinoceptor 12 (Homo sapiens, UniProt Q9H244). Description: Binding affinity to human P2Y12 assessed as inhibition constant.
The subject of a further series is Platelet. Description: Inhibition of thrombin-induced human platelet aggregation.

Counter-ions that a name gives are not always drawn.

Chain of P2Y purinoceptor 12 (Q9H244 whole entry): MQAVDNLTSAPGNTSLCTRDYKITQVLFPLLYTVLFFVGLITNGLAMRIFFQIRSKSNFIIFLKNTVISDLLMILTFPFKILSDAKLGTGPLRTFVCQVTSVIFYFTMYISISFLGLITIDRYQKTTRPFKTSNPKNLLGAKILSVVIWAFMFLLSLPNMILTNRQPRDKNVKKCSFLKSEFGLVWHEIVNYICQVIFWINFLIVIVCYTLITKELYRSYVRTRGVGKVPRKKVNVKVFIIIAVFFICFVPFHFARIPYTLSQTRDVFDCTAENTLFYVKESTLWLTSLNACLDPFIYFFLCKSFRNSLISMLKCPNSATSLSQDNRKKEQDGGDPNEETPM

`CC(C)n1c(=O)cc(N[C@@H](C)c2ccccc2)[nH]c1=O` gave an IC50 in series [1] of 300 nM.

In the case of `CCCCC(=O)N(Cc1ccc(-c2ccccc2-c2nnn[nH]2)cc1)[C@H](C(=O)O)C(C)C.CCOC(=O)[C@H](C)C[C@@H](Cc1ccc(-c2ccccc2)cc1)NC(=O)CCC(=O)O`, in series [2], the fraction unbound was 0.06. The same compound gave a half-life in series [3] of 4.6 h.

Consider `CCOc1nc2cccc(C(=O)OCc3oc(=O)oc3C)c2n1Cc1ccc(-c2ccccc2-c2noc(=O)[nH]2)cc1` [AZILSARTAN MEDOXOMIL], for which half-maximal inhibition in series [4] (IC50) was put at 2.6 nM.

Regarding `O=C(NC1CCN(CCCCC2(C(=O)NCC(F)(F)F)c3ccccc3-c3ccccc32)CC1)c1ccccc1-c1ccc(C(F)(F)F)cc1` [LOMITAPIDE MESYLATE], the EC50 in series [5] came out at 0.8 nM.

In the case of `O=C(NC[C@H]1CN(c2ccc(N3CCOCC3=O)cc2)C(=O)O1)c1ccc(Cl)s1` [RIVAROXABAN], the median effective dose (ED50) in the series listed under Rattus norvegicus is 0.1 mg/kg.

Take `CCCSc1nc(N[C@@H]2C[C@H]2c2ccc(F)c(F)c2)c2nnn([C@@H]3C[C@H](OCCO)[C@@H](O)[C@H]3O)c2n1` [TICAGRELOR]: the Ki at P2Y purinoceptor 12 worked out at 4.3 nM.

Regarding `CCOC(=O)N[C@@H]1CC[C@@H]2[C@@H](C1)C[C@H]1C(=O)O[C@H](C)[C@H]1[C@H]2/C=C/c1ccc(-c2cccc(F)c2)cn1` [VORAPAXAR], the IC50 in the series on Platelet worked out at 47 nM.

The values above are taken from ChEMBL document CHEMBL5579833, “The U.S. FDA approved cardiovascular drugs from 2011 to 2023: A medicinal chemistry perspective” (Eur J Med Chem, 2024).
